The text below walks through data of patent US8282778B2, “Prevention of bacterial spore formation in a broke system of a board machine” (Kemira Oyj, priority 2006, dated 2012).

Like-named read-outs stand apart in the source and are kept apart here.

For one data set, the target named is aconitase enzyme (Bacillus subtilis, UniProt P09339). Conditions: concentrations of less than 1 mM; cited from earlier work.
Data set [1] concerns Bacillus subtilis bacteria. To be noted: cited from earlier work.
For data set [2], the system named is Bacillus licheniformis 217 strain. Description: Example 3: sporulation of bacilli in broke, metals, DTPA and test product C. The class given is cell-based. As for the experimental part:
(§1) In this laboratory experiment, the effect of bivalent manganese and bivalent iron as well as a chelating agent (DTPA, diethylenetriaminepentaacetic acid) on the sporulation of bacilli isolated from a board machine was studied under conditions of the broke system. For the experiment, an inoculum free of spores was prepared from the Bacillus licheniformis 217 strain by carrying out three consecutive cultivations in a liquid medium for 24 hours (Tryptone-Yeast Extract Medium, +50° C., agitation at 100 rpm) using a low inoculation ratio (0.1% by volume/volume). Broke free of spores was produced by sterilizing dilute broke of the board machine. A low amount of spray starch used in the board machine was added to the broke to make up for the amount of starch consumed by bacterial activity during the transportation of the broke sample to the laboratory. The broke was divided into aliquots of 25 ml each and filled in tubes, followed by the addition of the test agents at different concentrations. 0.2% stock solutions of manganese (Mn(II)Cl2×4H2O) and iron (Fe(II)SO4×7H2O) in deionized water were sterile filtered using 0.2 μm spray filters. 25 μl of the Bacillus culture free of spores were added to each tube, followed by keeping the tubes at 45° C. (agitation at 100 rpm). The amounts of aerobic bacteria and aerobic spores in each tube were determined after different exposure times. The amount of aerobic bacteria were determined by a filtering method, whereas aerobic spores were determined from pasteurized (20 min, 80° C.) samples using the pour plate method (Plate Count Agar in both cases, 45° C., 3 d).
In this laboratory experiment, the effect of a test product C containing a dispersing agent and DTPA on sporulation of bacilli isolated from a board machine was studied under the conditions in the broke system. […]

The test system is the same in data set [3]. Nature of the data set: Example 1: sporulation of bacilli isolated from a board machine in sterilized dilute broke with spray starch. In kind it is cell-based. The procedure:
as §1, with “0.2% stock solutions of manganese (Mn(II)Cl2×4H2O) and iron (Fe(II)SO4×7H2O) in deionized water were sterile filtered using 0.2 μm spray filters. 25 μl of the Bacillus culture free of spores were added to each tube, followed by keeping the tubes at 45° C. (agitation at 100 rpm).” left out

In data set [4] the test system is Bacillus subtilis bacteria. To be noted: cited from earlier work. The source holds these as a separate data set.
For data set [5] the following is noted: pulping process; cited from earlier work.

Chain of aconitase enzyme (P09339 whole entry): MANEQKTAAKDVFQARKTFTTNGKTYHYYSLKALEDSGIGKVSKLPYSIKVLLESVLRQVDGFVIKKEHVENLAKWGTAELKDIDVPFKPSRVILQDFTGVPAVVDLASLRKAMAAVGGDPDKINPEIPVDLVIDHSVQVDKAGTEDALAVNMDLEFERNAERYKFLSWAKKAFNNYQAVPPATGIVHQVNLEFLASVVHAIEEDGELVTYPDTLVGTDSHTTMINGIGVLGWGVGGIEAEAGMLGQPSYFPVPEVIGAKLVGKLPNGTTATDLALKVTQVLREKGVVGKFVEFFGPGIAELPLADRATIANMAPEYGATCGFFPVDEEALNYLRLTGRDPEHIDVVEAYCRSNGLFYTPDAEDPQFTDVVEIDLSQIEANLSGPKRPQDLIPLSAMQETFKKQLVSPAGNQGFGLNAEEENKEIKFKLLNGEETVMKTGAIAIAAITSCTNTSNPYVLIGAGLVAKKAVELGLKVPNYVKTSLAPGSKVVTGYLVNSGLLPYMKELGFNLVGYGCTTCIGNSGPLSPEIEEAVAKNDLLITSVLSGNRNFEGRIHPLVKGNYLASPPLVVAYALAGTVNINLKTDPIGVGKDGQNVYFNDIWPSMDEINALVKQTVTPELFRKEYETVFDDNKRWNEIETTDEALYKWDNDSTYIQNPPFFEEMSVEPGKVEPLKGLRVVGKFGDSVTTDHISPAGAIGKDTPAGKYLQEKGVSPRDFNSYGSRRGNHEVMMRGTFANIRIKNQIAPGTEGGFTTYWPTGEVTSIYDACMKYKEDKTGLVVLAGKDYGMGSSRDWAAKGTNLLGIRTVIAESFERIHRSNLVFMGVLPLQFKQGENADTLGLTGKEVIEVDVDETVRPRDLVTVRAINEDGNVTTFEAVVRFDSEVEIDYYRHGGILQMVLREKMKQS

`c1ccc(-c2ccccn2)nc1` [dipyridyl]: the aconitase enzyme inhibition entry on aconitase enzyme is “inhibited”.
On to `[Mn+2]` [manganese], for which the “amount of sporulating cells of the wild type strain” value in data set [1] (0.006 ppm manganese addition) is recorded as “about 2.6%”; in data set [1] (0.8 ppm of manganese added), 39%. For the same compound, the “amount of sporulating cells” value in data set [1] (manganese addition of 0.1 ppm or more, growth medium rich in nutrients) was “increased”.
Turning to `O=C(O)c1ccc2ccccc2n1` [quinaldic acid], at aconitase enzyme, the aconitase enzyme inhibition result is “inhibited”.
In the case of `O=C(O)CN(CCN(CC(=O)O)CC(=O)O)CCN(CC(=O)O)CC(=O)O` [DTPA, diethylenetriaminepentaacetic acid], the “toxicity to bacilli (amount of aerobic bacteria, FIG. 5)” value in data set [2] is reported as “neither DTPA nor the test product C was toxic”. For the same compound, the reduction of sporulation is 99.4% in data set [2] (12 ppm (as active agent)) and 79% in data set [3] (12.5 ppm (as active agent)). Besides, the sporulation frequency in data set [2] (12 ppm (as active agent)) turned out to be 0.11%. In addition, the inhibition of sporulation entry in data set [3] (17.5 ppm) was “total inhibition”.
In the case of `O=C(O)c1ccccn1` [alpha picolinic acid], the sporulation result in data set [4] (concentration of 0.4 mM) is recorded as “reduced sporulation”. Also, the growth result in data set [4] (concentrations of less than 1 mM (<123 ppm)) is “not inhibited”.
As to `O=P(O)(O)CN(CCN(CP(=O)(O)O)CP(=O)(O)O)CCN(CP(=O)(O)O)CP(=O)(O)O` [DTPMP, diethylenetriamine-pentakis methylenephosphonic acid], the “chelating performance for manganese” value in data set [5] is on record as “over 95%”.
`c1cnc2c(c1)ccc1cccnc12` [o-phenanthroline]: on aconitase enzyme, the aconitase enzyme inhibition result is given as “inhibited”.
